# Test results reported in US7109329B2, “Neurologically active compounds and compounds with multiple activities” (priority 1988, dated 2006).
# Experiment: Activities and properties of the compounds (Table III codes listed as Specific Properties in Table IV)
# Conditions: not given
# Source text: Certain of the compounds produce a profound hypothermia, but without anesthetizing. […] Table III, following, sets forth a list of the other properties of these guanidino compounds, which arise from their alpha-adrenergic agonist activity, combined with any inherent activity of the reactants chosen to achieve the final compound.
# Except for items numbered 22 and 24–28 in Table III, substantially all of the guanidino compounds of this invention, as a result of their structure-activity relationship, are potent with respect to all of the above activities. However, as would be expected, various compounds have different, higher levels of, activities and properties which are listed as “Specific Properties”, with the Compounds numbered, in Table IV, below, according to the numbers in Tables I and II.
row,Compound,Specific Properties
1,"1,2-Bis(theophylline-7-acetamido)-ethane [Compound 164]","3, 15, anesthesia antagonist"
2,3-(Guanidinoacetoxy)-estrone [Compound 148],27
3,3-(PGE2carbonyl)-3-estrone ester [Compound 156],27 (some agonist activity)

# Same assay, conditions: codes of Table III; […]
row,Compound,Specific Properties
1,"2-(2,6-Diisopropylanilino)-2-methyleneimidazole [Compound 101]",adrenergic antagonist
2,"4-4′-(1,2-Diethyl-1,2-ethenediyl)-4-guanidinoacetoxyphenyl-4′-(6-hydroxy-2,5,7,8-tetramethylchroman-2-carbonyl)-phenol ester [Compound 143]",27 (Estrogenic antagonist (breast cancer treatment))
3,"4-(PGE2carbonylphenyl)-4-4′(1,2-diethyl-1,2-ethenediyl)-4-phenol [Compound 157]",27 (some agonist activity)
4,5-Methoxy-2-methyl-3-indoleacetamidoguanidine [Compound 103],5
5,"7-(3,5-Dichorophenylhydrazido)-7-acetyltheophylline [Compound 102]","3, 14, 16, 17 antagonist"
6,17-(PGE1carbonyl)-17-cyproterone ester [Compound 154],26 (Androgenic antagonist)
7,C[N+](C)(C)CCOC(=O)CNC(=N)N [Compound 32],"1, 15, cholinergic"
8,"COc1cc(CC(=O)Oc2ccc3[nH]cc(CCN)c3c2)cc(OC)c1OC [Compound 74, 5-(3,4,5-Trimethoxyphenylacetoxy)-tryptamine]",5
9,"CC(=O)[C@@]1(OC(=O)CNC(=N)N)CCC2C3C=C(Cl)C4=CC(=O)C5C[C@@H]5C4(C)C3CCC21C (stereo partly drawn) [Compound 129, 6-Chloro-1,2,Dihydro-17-guanidinoacetoxy-3′H-cyclopropa[1,2]pregna-1,4,6-triene-3,20-dione]",26 (Androgenic antagonist)
10,"N-(2,6-Dichlorbenzylidene)-3-(5-hydroxyindole)ethylamine [Compound 78]",5
11,N-(PGE1carboxamido)-1-aminophthalazine [Compound 152],6–11 (anti-impotence)
12,N-(PGE1carboxamido)-guanidine [Compound 151],6–11 (anti-impotence)
13,"N-[(6-PGE1carbonyl)-2,5,7,8-tetramethylchroman-2-carboxamido]-1-aminophthlazine [Compound 153]",6–11 (anti-impotence)

# Same assay, conditions: codes of Table III; higher levels of activity
row,Compound,Specific Properties
1,"2-(3,4,5-Trimethoxybenzylidineamino)-2-methylbenzimidazole [Compound 100]",adrenergic antagonist
2,"17-[2-6-(N-1-Aminophthalazino-1-amidopropionyl)-2,5,7,8-tetramethylchroman-2-carbonyl]-17-cyproterone ester [Compound 140]",26 (ESP Topical to treat male pattern
3,"Cl.Cn1c(=O)c2c(ncn2CC(=O)Nc2nc(N)nc(NC(=O)C[N+](C)(C)C)n2)n(C)c1=O [Compound 31, 2-(Amino)-4-(1-carboxamido-N,N,N-trimethylmethaniminium)-6-(theophylline-7-acetamido)-1,3,5-s-triazine]","2, 3, 15, cholinergic"
4,"N=C(N)NNC(=O)Cc1c[nH]c2ccc(O)cc12 [Compound 38, 5-Hydroxyindole-3-acetamidoguanidine]",5
5,"Cn1c(=O)c2c(ncn2CC(=O)NCc2nc3ccccc3[nH]2)n(C)c1=O [Compound 96, 2-(Theophylline-7-acetamido)-2-methylbenzimidazole]","3, adrenergic antagonist, 12"
6,"Cn1c(=O)c2c(ncn2CC(=O)NC(=O)c2ccc(C(=N)N)cc2)n(C)c1=O [Compound 97, 4-(Amidino)-N-(theophylline-7-acetyl)-benzamide]","3, 2, 2, antagonist, 12"
7,COc1cc(N=Cc2ncc[nH]2)cc(OC)c1OC [Compound 98],adrenergic antagonist
8,"N=C(N)c1ccc(C(=O)NC(=O)Cc2c(Cl)cccc2Cl)cc1 [Compound 99, 4-(Amidino)-N-(2,6-dichlorophenylacetyl)-benzamide]",adrenergic antagonist
9,"COc1cc(CNC(=O)CNC(=N)N)ccc1O [Compound 104, N-(4-Hydroxy-3-methoxybenzyl)-guanidinoacetamide]",2 (Antispasticity and muscle relaxant)
10,"CC/C(=C(/CC)c1ccc(OC(=O)CNC(=N)N)cc1)c1ccc(OC(=O)CNC(=N)N)cc1 [Compound 127, 4,4′-(1,2-Diethyl-1,2-ethenediyl)bis-phenoldiguanidinoacetate ester]",27 (Estrogenic antagonist (breast cancer treatment))
11,"CC/C(=C(/CC)c1ccc(OC(=O)C2(C)CCc3c(C)c(OC(=O)CNC(=N)N)c(C)c(C)c3O2)cc1)c1ccc(O)cc1 (stereo not drawn) [Compound 128, 2-[4,4′-(1,2-Diethyl-1,2-ethenediyl)phenol]-6-(guanidinoacetoxy)-2,5,7,8-tetramethylchroman-2-carbonyl-2-phenol ester]",27 (Estrogenic antagonist (breast cancer treatment))
12,"Cc1c(C)c2c(c(C)c1O)CCC(C)(C(=O)Nc1ccc(C(=O)NNC(=N)N)cc1)O2 (stereo not drawn) [Compound 135, 4-N-(G-Hydroxy-2,5,7,8-tetramethylchroman-2-carboxamido)-4-benzamidoguanidine]",9–15
13,"CC1(N=Cc2c(Cl)cccc2Cl)N=c2ccccc2=N1 [Compound 162, 2-(2,6-Dichlorobenzylideneamino)-2-methyl-benzimidazole]","14, 17 adrenergic antagonist, 22, 23"
14,"CC(C)c1cccc(C(C)C)c1C=NCC(=N)N [Compound 163, 2,6-Diisopropylbenzylideneaminomethylamidine]","14, 17, adrenergic antagonist, 22, 23"
15,"CCCCCC(O)/C=C/C1C(O)CC(=O)[C@@H]1CCCCCCCC(=O)OCC(O)COC(=O)CCCCCCC[C@H]1C(=O)CC(O)C1/C=C/C(O)CCCCC (stereo partly drawn) [Compound 170, 1,3-Di-PGE1-2-propanol-ester]","8, 9, 12, Vasodilator"
16,"CC(=O)[C@@]1(OC(=O)CNC(=N)N)CCC2C3C=C(C)C4=CC(=O)CCC4(C)C3CCC21C (stereo partly drawn) [Compound 184, 17-(Guanidinoacetoxy)-megostrol]","27, Progestin, androgenic"
17,"CC(=O)[C@@]1(OC(=O)CNC(=N)N)CCC2C3CC(C)C4=CC(=O)CCC4(C)C3CCC21C (stereo partly drawn) [Compound 185, 17-(Guanidinoacetoxy)-medroxyprogesterone]","27, Progestin, androgenic"
18,"CC(=O)[C@@]1(OC(=O)CNC(=N)N)CCC2C3CCC4=CC(=O)CCC4(C)C3CCC21C (stereo partly drawn) [Compound 186, 17-(Guanidinoacetoxy)-progesterone]","1927, Progestin, androgenic"
19,"CC/C(=C(\c1ccccc1)c1ccc(OC(=O)CNC(=N)N)cc1)c1ccccc1 [Compound 187, [Z]-2-[4-(1,2-Diphenyl-1-butenyl)-phenoxy]-guanidineacetate ester]","27, Progestin"
20,"N=C(N)c1ccc(OCCCCCOc2ccc(C(=N)N)cc2)cc1 [Compound 192, 4,4′-[Pentanediylbis(oxy)]bis-benzenecarboximidamide, reference compound]","1, 2, 8–10, 15, 29 Adrenergic antagonist"
21,"[H]/N=C(\N/C(=N/[H])Nc1ccc(Cl)cc1)NC(C)C [Compound 217, reference compound]","1, 4, 6–9, 16, 17, 19 antimalarial"
22,"N=C(N)c1ccc(C(=O)NC(c2ccccc2)c2ccccc2)cc1 [Compound 223, N-(Diphenylmethyl)-4-(amidino)-Benzamide]","1, 2, 4, 6, 9, 10, 14, 15, 17, 23, 29 Adrenergic"
23,"N=C(N)c1ccc(C(=O)NC(=O)CCCCC2SCC3NC(=O)NC32)cc1 (stereo not drawn) [Compound 233, N-(Hexahydro-2-oxo-1H-thieno[3,4-d]-imidazole-4-pentanoyl)-4-amidinobenzamide]","1, 2, 4, 6, 9, 10, 14, 15, 17, 23, 29 Antialopecia,"
24,"Bis(3,17-PGE2carbonyl)-estradiole ester [Compound 158]",27 (Estrogenic antagonist (breast cancer treatment))
25,"Bis(3,17-guanidinoacetoxy)estradiaole [Compound 147]",27 (Estrogenic antagonist (breast cancer treatment))
26,Guanidinamidocarbonyl-1-cholinepentanoic acid ester [Compound 167],"Adrenergic, cholinergic, 22, 23"

# Experiment: Reversal of guanabenz-induced anesthesia and hypothermia by antagonists
# Type: in vivo, rat
# Conditions: guanabenz-treated rats (4 mg I.P.); Yohimbine 10 mg I.P.
# Procedure: The effect can also be partially reversed, or reversed in stages, if desired, by administering several smaller aliquots of the antagonist.
# Room temperature was 21.5° C. […] The control rats, injected only with the carrier dextrose solution, maintained a relatively constant temperature during the entire test period under identical conditions of the test.
Compound,effect on guanabenz-induced anesthesia,effect on guanabenz-induced hypothermia (body temperature)
COC(=O)[C@@H]1[C@H]2C[C@H]3c4[nH]c5ccccc5c4CCN3C[C@@H]2CC[C@@H]1O [Yohimbine],brought out of anesthesia,hypothermia was simultaneously reversed

# Same assay, conditions: rat, in vivo
Compound,antagonism of both the hypothermic and anesthetic effects of guanidino compounds,antagonism of the hypothermic effect substantially without reducing the anesthetized condition
"Cn1c(=O)c2c(ncn2CC(=O)NCc2nc3ccccc3[nH]2)n(C)c1=O [Compound 96, 2-(Theophylline-7-acetamido)-2-methylbenzimidazole]",reverse both the hypothermic and anesthetic effects,–
"Cn1c(=O)c2c(ncn2CC(=O)NC(=O)c2ccc(C(=N)N)cc2)n(C)c1=O [Compound 97, 4-(Amidino)-N-(theophylline-7-acetyl)-benzamide]",reverse both the hypothermic and anesthetic effects,–
C=CCN1CC[C@]23c4c5ccc(O)c4O[C@H]2C(=O)CC[C@@]3(O)[C@H]1C5 [Naloxone],not found to be a useful antagonist,–
COC(=O)[C@@H]1[C@H]2C[C@H]3c4[nH]c5ccccc5c4CCN3C[C@@H]2CC[C@@H]1O [Yohimbine],reverse both the hypothermic and anesthetic effects,–
c1ccc(CC2=NCCN2)cc1 [tolazoline],–,effect-specific alpha2-antagonists

# Same assay, conditions: six anesthetized rats also injected with aminophylline, then tolazoline
Compound,reversal of anesthesia-hypothermia induced by guanabenz,time until anesthesia-hypothermia reversed and body temperature normal [min]
c1ccc(CC2=NCCN2)cc1 [tolazoline],completely reversed,≤ 25
